# Measurements taken from article PMC10709440, “High-throughput ligand profile characterization in novel cell lines expressing seven heterologous insect olfactory receptors for the detection of volatile plant biomarkers” (Scientific Reports, 2023).
# Like-named read-outs stand apart in the source and are kept apart here.
# Experiments:
# [1] = biological target: T1, Drosophila OR47a (Drosophila melanogaster, UniProt P81921); assay: Calcium ion fluorescence (GCaMP6) assay, OR47a stable HEK293 cell line; assay type: cell-based; settings: for Average response: mean of biological replicates
# T1 construct: expressed in transfected cells
# T1 sequence (P81921 1-385): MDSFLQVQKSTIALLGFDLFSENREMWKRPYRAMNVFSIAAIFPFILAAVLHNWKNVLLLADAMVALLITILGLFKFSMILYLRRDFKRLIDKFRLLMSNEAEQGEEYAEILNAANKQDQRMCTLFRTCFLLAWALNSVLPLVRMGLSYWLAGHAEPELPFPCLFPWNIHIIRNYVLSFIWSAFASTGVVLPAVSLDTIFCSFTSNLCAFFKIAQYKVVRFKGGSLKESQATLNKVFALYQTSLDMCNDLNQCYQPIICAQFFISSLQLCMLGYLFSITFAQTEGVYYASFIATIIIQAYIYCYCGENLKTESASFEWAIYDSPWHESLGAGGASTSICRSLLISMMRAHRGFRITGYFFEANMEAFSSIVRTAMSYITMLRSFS
# T1 sequence (Q9VNB5 1-486 partner): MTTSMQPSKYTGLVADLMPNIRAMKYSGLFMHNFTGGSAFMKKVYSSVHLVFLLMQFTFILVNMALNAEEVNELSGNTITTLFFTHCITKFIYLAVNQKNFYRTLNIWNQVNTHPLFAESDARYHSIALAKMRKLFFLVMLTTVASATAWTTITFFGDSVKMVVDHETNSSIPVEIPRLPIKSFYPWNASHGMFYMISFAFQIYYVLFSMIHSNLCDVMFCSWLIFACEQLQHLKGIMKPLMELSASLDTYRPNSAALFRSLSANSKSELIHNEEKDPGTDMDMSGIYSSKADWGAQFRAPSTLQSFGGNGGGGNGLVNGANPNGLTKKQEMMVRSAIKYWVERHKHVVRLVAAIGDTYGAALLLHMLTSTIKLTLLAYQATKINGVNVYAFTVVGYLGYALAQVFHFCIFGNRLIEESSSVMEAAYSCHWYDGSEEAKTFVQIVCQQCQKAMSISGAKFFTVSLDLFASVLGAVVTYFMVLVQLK
# Summary of the method: (§1)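 HEK293 lines stably expressing each Drosophila OR with GCaMP6, doxycycline-induced (1 μg/mL) 48 or 72 h. Fluorescence recorded 5 s baseline then 30 s after VOC injection at pH 7.3; ΔF=(FMAX−F0)/F0, normalized to 50 µM VUAA1 response per line, triplicate wells averaged; concentration series 0.01–100 μM.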
# [2] = biological target: T2, Drosophila OR98a (Drosophila melanogaster, UniProt Q9VAZ3); assay: Calcium ion fluorescence (GCaMP6) assay, OR98a stable HEK293 cell line; assay type: cell-based; settings: for Average response: average of biological replicates, fraction of VUAA1 response
# T2 construct: expressed in transfected cells
# T2 sequence (Q9VAZ3 1-397): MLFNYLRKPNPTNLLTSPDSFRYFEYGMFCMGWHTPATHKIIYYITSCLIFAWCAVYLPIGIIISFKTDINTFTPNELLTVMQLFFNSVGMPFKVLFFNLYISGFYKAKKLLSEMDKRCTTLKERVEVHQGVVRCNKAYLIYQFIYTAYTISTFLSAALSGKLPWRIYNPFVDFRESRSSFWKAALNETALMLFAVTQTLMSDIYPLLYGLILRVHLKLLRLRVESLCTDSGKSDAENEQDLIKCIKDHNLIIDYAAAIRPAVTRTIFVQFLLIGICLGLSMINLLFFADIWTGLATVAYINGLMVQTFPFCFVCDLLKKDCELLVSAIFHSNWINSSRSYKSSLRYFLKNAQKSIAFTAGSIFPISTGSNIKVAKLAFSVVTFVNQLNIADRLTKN
# T2 sequence (Q9VNB5 1-486 partner): T1 sequence (Q9VNB5 1-486 partner)
# Summary of the method: as §1
# [3] = HEK293, read-out: OR47a Average response (VUAA1-normalized)
# [4] = HEK293, read-out: OR47a response (VUAA1-normalized response)
# [5] = OR47a cell line, odorant cc. 1 µM
# [6] = OR47a cell line, odorant cc. 10 µM
# [7] = OR47a cell line, odorant cc. 100 µM
# [8] = concentration 1, normalized fluorescence change, values below 0.05 threshold given as 0
# [9] = concentration 10, normalized fluorescence change, values below 0.05 threshold given as 0
# [10] = concentration 100, normalized fluorescence change, values below 0.05 threshold given as 0
# [11] = HEK293, read-out: Average response
# [12] = HEK293, read-out: OR98a Average response (VUAA1-normalized)
# [13] = HEK293, read-out: OR98a response (VUAA1-normalized response)
# [14] = ligand concentration 1 (unit not given), threshold 0.05, below shown as 0
# [15] = ligand concentration 10 (unit not given), threshold 0.05, below shown as 0
# [16] = ligand concentration 100 (unit not given), threshold 0.05, below shown as 0
Structure (SMILES),"activation at 1 µM [1, 3]","activation at 10 µM [1, 3]","activation at 100 µM [1, 3]","activation at 1 µM [1, 4]","activation at 10 µM [1, 4]","activation at 100 µM [1, 4]","Average response [1, 5]","Average response [1, 6]","Average response [1, 7]","DF norm AVERAGE OR47a [1, 8]","DF norm AVERAGE OR47a [1, 9]","DF norm AVERAGE OR47a [1, 10]","activation at 1 µM [2, 11]","activation at 10 µM [2, 11]","activation at 100 µM [2, 11]","activation at 1 µM [2, 12]","activation at 10 µM [2, 12]","activation at 100 µM [2, 12]","activation at 1 µM [2, 13]","activation at 10 µM [2, 13]",also measured
CCCCCC(=O)CC [3-octanone],7%,16%,73%,7.45%,16%,73%,0.0745,0.16,0.73,0.07449,0.1581,0.7333,0%,0%,16%,0%,0%,16%,0%,0%,"activation at 100 µM [2, 13]: 16%; DF norm AVERAGE OR98a [2, 8]: 0; DF norm AVERAGE OR98a [2, 9]: 0; DF norm AVERAGE OR98a [2, 10]: 0.1573"
C=C(C)[C@H]1CC=C(C)CC1 [(R)-(+)-limonene],,,,,,,0.05,0.0529,0.00,0,0.05286,0,,,,,,,,,"OR47a response (VUAA1-normalized response) ([1]; VOC concentration 1 μM): 0.00; OR47a response (VUAA1-normalized response) ([1]; VOC concentration 10 μM): 0.0529; OR47a response (VUAA1-normalized response) ([1]; VOC concentration 100 μM): 0.00; OR98a response (VUAA1-normalized response) ([2]; VOC concentration 1 μM): 0.00; OR98a response (VUAA1-normalized response) ([2]; VOC concentration 10 μM): 0.00; OR98a response (VUAA1-normalized response) ([2]; VOC concentration 100 μM): 0.00; Average response ([2]; cc. 1 µM, OR98a cell line): 0.03; Average response ([2]; cc. 10 µM, OR98a cell line): 0.00; Average response ([2]; cc. 100 µM, OR98a cell line): 0.03; DF norm AVERAGE OR98a [2, 8]: 0; DF norm AVERAGE OR98a [2, 9]: 0; DF norm AVERAGE OR98a [2, 10]: 0"
COC(=O)c1ccccc1 [methyl benzoate],,,,,,,0.0138,0.00,0.06,,,,7.5%,0%,12%,7%,0%,12%,,,"OR47a response (VUAA1-normalized) at 1 μM ([1]; OR47a cell line, VOC concentration 1 μM): 0.00; OR47a response (VUAA1-normalized) at 10 μM ([1]; OR47a cell line, VOC concentration 10 μM): 0.00; OR47a response (VUAA1-normalized) at 100 μM ([1]; OR47a cell line, VOC concentration 100 μM): 0.06; DF norm AVERAGE OR47a [1, 14]: 0; DF norm AVERAGE OR47a [1, 15]: 0; DF norm AVERAGE OR47a [1, 16]: 0.05948; OR98a response (VUAA1-normalized) at 1 μM ([2]; OR98a cell line, VOC concentration 1 μM): 0.075; OR98a response (VUAA1-normalized) at 10 μM ([2]; OR98a cell line, VOC concentration 10 μM): 0.00; OR98a response (VUAA1-normalized) at 100 μM ([2]; OR98a cell line, VOC concentration 100 μM): 0.12; DF norm AVERAGE OR98a [2, 14]: 0.07495; DF norm AVERAGE OR98a [2, 15]: 0; DF norm AVERAGE OR98a [2, 16]: 0.1166"
CC(=O)OCC(C)C [isobutyl acetate],19%,15%,65%,19%,15%,65%,0.19,0.15,0.65,,,,1.85%,0%,6.56%,,,,0%,0%,"DF norm AVERAGE OR47a [1, 14]: 0.1884; DF norm AVERAGE OR47a [1, 15]: 0.1518; DF norm AVERAGE OR47a [1, 16]: 0.646; activation at 100 µM [2, 13]: 6.56%; DF norm AVERAGE OR98a [2, 14]: 0; DF norm AVERAGE OR98a [2, 15]: 0; DF norm AVERAGE OR98a [2, 16]: 0.0656"
